From the supplement of paper PMC10627819
Converted amounts (≈) assume the structure as drawn.

Experiments:
S. aureus DSM 20231 [1] = test system: S. aureus DSM 20231
S. aureus Newman [2] = test system: S. aureus Newman
S. pneumoniae D39V [3] = test system: S. pneumoniae D39V
B. subtilis 168 [4] = assay: fitness (endpoint OD595 vs no drug) (fraction); higher = more growth
Summary of the method: (§1)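 Each well of a 384-well plate received 30 µl of culture at OD595 0.01, or 55 µl for S. pneumoniae. TSB, LB Lennox or CY served as media at 37 °C. OD595 was taken every 30 min for 14 h and corrected by subtracting the first reading. Fitness is the optical density at stationary-phase entry divided by the robust mean of no-drug controls, capped at 1.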

S. aureus DSM 20231 [5] = assay: as above
Summary of the method: as §1

S. aureus Newman [6] = assay: as above
Summary of the method: as §1

S. pneumoniae D39V [7] = assay: as above
Summary of the method: as §1

B. subtilis 168 [8] = assay: Bliss interaction score (quartile over a dose matrix) (fitness difference); higher = more antagonism (negative = synergy)
Summary of the method: (§2)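 Each plate was normalised to the robust mean of its own no-drug wells, using OD595 at entry into stationary phase, with values capped at 1. This normalised growth is the fitness value. The Bliss score is the difference between observed and product-expected fitness, with single-drug fitness inferred from the combination data and quartiles taken over technical, biological and donor/recipient replicates.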

S. aureus DSM 20231 [9] = assay: as above
Summary of the method: as §2

S. aureus Newman [10] = assay: as above
Summary of the method: as §2

S. pneumoniae D39V [11] = assay: as above
Summary of the method: as §2

B. subtilis 168 [12] = test system: B. subtilis 168
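For Bliss interaction score (quartile over a dose matrix) in this document: first quartile when negative (synergy) and third quartile when positive (antagonism).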

CC(=O)OC[C@H]1O[C@@H]([S-])[C@H](OC(C)=O)[C@@H](OC(C)=O)[C@@H]1OC(C)=O.CCP(CC)CC.[Au+] [Auranofin]
Details	MIC [µg/mL]
S. aureus DSM 20231 [1]	0.5
S. aureus Newman [2]	0.5

O=C(N[C@H](CO)[C@H](O)c1ccc([N+](=O)[O-])cc1)C(Cl)Cl [Chloramphenicol]
Details	MIC [µg/mL]
S. aureus DSM 20231 [1]	3.5 (≈ 10.8 µM)
S. aureus Newman [2]	3 (≈ 9.28 µM)
S. pneumoniae D39V [3]	2 (≈ 6.19 µM)

Details	fitness
B. subtilis 168 [4], 0.5 µg/mL	0.834
B. subtilis 168 [4], 1 µg/mL	0.659
S. aureus DSM 20231 [5], 0.75 µg/mL	0.878
S. aureus DSM 20231 [5], 1.5 µg/mL	0.711
S. aureus DSM 20231 [5], 3 µg/mL	0.0899
S. aureus Newman [6], 0.75 µg/mL	0.804
S. aureus Newman [6], 1.5 µg/mL	0.514
S. aureus Newman [6], 3 µg/mL	0.126
S. pneumoniae D39V [7], 0.375 µg/mL	0.893
S. pneumoniae D39V [7], 0.75 µg/mL	0.722
S. pneumoniae D39V [7], 1.5 µg/mL	0.407

CC[C@H]1OC(=O)[C@H](C)[C@@H](O[C@H]2C[C@@](C)(OC)[C@@H](O)[C@H](C)O2)[C@H](C)[C@@H](O[C@@H]2O[C@H](C)C[C@H](N(C)C)[C@H]2O)[C@](C)(OC)C[C@@H](C)C(=O)[C@H](C)[C@@H](O)[C@]1(C)O [Clarithromycin]
Details	MIC [µg/mL]
S. aureus DSM 20231 [1]	0.234 (≈ 0.313 µM)
S. aureus Newman [2]	0.5 (≈ 0.668 µM)
S. pneumoniae D39V [3]	0.5 (≈ 0.668 µM)

fitness
Details	0.0585 µg/mL	0.0625 µg/mL	0.117 µg/mL	0.125 µg/mL	0.234 µg/mL	0.25 µg/mL
S. aureus DSM 20231 [5]	0.94	–	0.691	–	0.0857	–
S. pneumoniae D39V [7]	–	0.568	–	0.346	–	0.148

O=C(O[C@@H]1Cc2c(O)cc(O)cc2O[C@@H]1c1cc(O)c(O)c(O)c1)c1cc(O)c(O)c(O)c1 [EGCG] + Cc1onc(-c2ccccc2)c1C(=O)N[C@@H]1C(=O)N2[C@@H]1SC(C)(C)[C@@H]2C(=O)O [Oxacillin]
fitness
Details	first compound 6.25 µg/mL	first compound 12.5 µg/mL	first compound 25 µg/mL	first compound 50 µg/mL
B. subtilis 168 [4], partner 0.002 µg/mL	0.935	–	0.202	–
B. subtilis 168 [4], partner 0.004 µg/mL	0.924	0.538	0.205	–
B. subtilis 168 [4], partner 0.008 µg/mL	0.898	0.525	0.186	–
S. aureus DSM 20231 [5], partner 0.0156 µg/mL	–	0.645	0.582	0.62
S. aureus DSM 20231 [5], partner 0.0312 µg/mL	–	0.498	0.548	–
S. aureus DSM 20231 [5], partner 0.0625 µg/mL	–	0.442	0.393	0.34
S. aureus Newman [6], partner 0.0156 µg/mL	–	0.591	0.605	–
S. aureus Newman [6], partner 0.0312 µg/mL	–	0.624	0.681	–
S. aureus Newman [6], partner 0.0625 µg/mL	–	0.59	0.636	–
S. pneumoniae D39V [7], partner 0.005 µg/mL	–	0.989	0.973	≥ 1
S. pneumoniae D39V [7], partner 0.01 µg/mL	–	0.924	0.903	0.966
S. pneumoniae D39V [7], partner 0.02 µg/mL	–	0.929	0.947	0.923
S. pneumoniae D39V [7], partner 0.04 µg/mL	–	0.474	0.576	0.632

fitness, B. subtilis 168 [4], one replicate
Details	partner 0.0078 µg/mL	partner 0.0155 µg/mL	partner 0.031 µg/mL	partner 0.075 µg/mL	partner 0.15 µg/mL	partner 0.3 µg/mL
first compound 6.25 µg/mL	0.998	0.978	0.972	0.515	0.0556	0.0544
first compound 12.5 µg/mL	0.858	0.852	0.792	0.444	0.0247	0.0417
first compound 25 µg/mL	0.602	0.559	0.434	0.139	0.0233	0.024

Details	Bliss interaction score
B. subtilis 168 [8]	-0.0648
S. aureus DSM 20231 [9]	-0.0707
S. aureus Newman [10]	0.0991
S. pneumoniae D39V [11]	0.0942

C[C@@H](O)[C@H]1C(=O)N2C(C(=O)O)=C(SCCNC=N)C[C@H]12 [Imipenem]
Details	MIC [µg/mL]
B. subtilis 168 [12]	0.5 (≈ 1.67 µM)
S. pneumoniae D39V [3]	0.062 (≈ 0.207 µM)

fitness
Details	0.005 µg/mL	0.01 µg/mL	0.02 µg/mL	0.0625 µg/mL	0.125 µg/mL	0.25 µg/mL
B. subtilis 168 [4]	–	–	–	0.857	0.751	0.466
S. pneumoniae D39V [7]	0.961	0.95	0.943	–	–	–

CCC[C@@H]1C[C@@H](C(=O)N[C@@H]([C@H]2O[C@H](SC)[C@H](O)[C@@H](O)[C@H]2O)[C@@H](C)O)N(C)C1 [Lincomycin]
Details	MIC [µg/mL]
S. aureus DSM 20231 [1]	0.4 (≈ 0.984 µM)
S. aureus Newman [2]	0.4 (≈ 0.984 µM)
S. pneumoniae D39V [3]	1.6 (≈ 3.94 µM)

fitness
Details	0.1 µg/mL	0.2 µg/mL	0.4 µg/mL	0.8 µg/mL	1.6 µg/mL
B. subtilis 168 [4]	0.862	0.823	0.852	0.878	0.854
S. aureus DSM 20231 [5]	0.932	0.767	0.315	–	–
S. pneumoniae D39V [7]	–	0.648	0.432	0.211	–
